Source: publication PMC7287031 (Pharmacology Research & Perspectives, 2020)

Key:
[1] = Human ADME study: safety assessments; type: in vivo; conditions: single oral 600 mg
From the text: Safety analysis included monitoring and recording of all adverse events, laboratory tests (ophthalmologic exam, hematology, blood chemistry, and urinalysis), vital signs, electrocardiogram, and physical examination.

[2] = system: hepatic P450 isoenzymes (total); test: Biotransformation by a panel of 17 recombinant human CYPs and three FMOs; type: in vitro ADME; conditions: human, recombinant human CYPs, scaled to human liver microsomes, pH 7.4; sum over CYPs, based on recombinant enzyme data; read-out: Rel.Clint,u in HLM, total of hepatic P450 isoenzymes
Description: (§1) In vitro incubations were carried out in 100‐mM potassium phosphate buffer (pH 7.4) and 5‐mM MgCl2 with a total volume of 200 µL. Substrate and either human liver microsomes (HLM, BD Biosciences, mixed gender pool of n = 50) or recombinant human enzymes (BD Biosciences) were added and pre‐incubated for 3 minutes at 37°C. The reaction was started by addition of a fresh solution of NADPH (1 mmol/L final concentration). The samples were incubated at 37°C with agitation of 500 rpm. For incubations with CYP2A6, CYP2C9, CYP2C18, and CYP4A11, the phosphate buffer was replaced by TRIS buffer (100 mmol/L, pH 7.4) and for flavin‐containing monooxygenases (FMOs), a glycine buffer (50 mM, pH 9.5) was used.
(§2) The enzymatic reaction was stopped and the protein was precipitated by addition of an equal volume of methanol. After 30 min at −80°C, the samples were centrifuged at 30'000 x g for 15 min. The supernatant was withdrawn. Aliquots were analyzed by LSC and the supernatant was diluted with water to obtain a final solution containing less than 20% of the organic solvent. For samples of low substrate concentration, supernatants were evaporated to dryness under nitrogen, then re‐suspended in water containing less than 20% of methanol. Samples were analyzed by HPLC combined with radiodetection.
(§3) The relative contribution of CYP enzymes to oxidative hepatic metabolism was determined using their Clint values multiplied by the unbound fraction in microsomes and their abundances in human liver microsomes. ^15 Among the hepatic P450 enzymes, CYP3A4 contributed predominantly (97%) to metabolism in human liver microsomes (Table 1) with negligible fraction metabolized by CYP1A2 (1.1%), CYP2J2 (0.8%), and CYP3A5 (1.2%).

[3] = system: recombinant human CYPs and FMOs; test: as above; type: in vitro ADME
Description: as §1, §2, §3

CYP2J2 = target: T1, CYP2J2 (Homo sapiens, UniProt P51589); test: Enzyme kinetics with recombinant CYP2J2 and scaling to HLM; type: in vitro ADME
T1 construct: purchased BD Biosciences
T1 sequence (P51589 1-502): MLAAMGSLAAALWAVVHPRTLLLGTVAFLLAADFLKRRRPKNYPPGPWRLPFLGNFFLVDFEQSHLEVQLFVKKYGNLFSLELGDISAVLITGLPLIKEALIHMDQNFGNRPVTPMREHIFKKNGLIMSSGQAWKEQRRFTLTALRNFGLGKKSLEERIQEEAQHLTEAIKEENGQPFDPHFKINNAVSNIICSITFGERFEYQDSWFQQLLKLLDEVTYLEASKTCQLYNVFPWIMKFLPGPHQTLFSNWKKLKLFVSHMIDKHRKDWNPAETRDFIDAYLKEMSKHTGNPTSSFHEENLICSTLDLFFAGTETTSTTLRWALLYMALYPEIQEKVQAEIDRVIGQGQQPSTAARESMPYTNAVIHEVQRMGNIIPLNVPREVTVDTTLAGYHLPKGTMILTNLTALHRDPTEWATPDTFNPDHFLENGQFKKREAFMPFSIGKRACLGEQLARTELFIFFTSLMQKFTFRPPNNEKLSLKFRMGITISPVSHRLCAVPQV
Description: as §1
The enzymatic reaction was stopped and the protein was precipitated by addition of an equal volume of methanol. After 30 min at −80°C, the samples were centrifuged at 30'000 x g for 15 min. The supernatant was withdrawn. Aliquots were analyzed by LSC and the supernatant was diluted with water to obtain a final solution containing less than 20% of the organic solvent. For samples of low substrate concentration, supernatants were evaporated to dryness under nitrogen, then re‐suspended in water containing less than 20% of methanol. Samples were analyzed by HPLC combined with radiodetection. […]

[4] = design: method as in earlier work; conditions: humans, total of central and peripheral volume; ref 22 (Lu et al, manuscript submitted); cited from earlier work
[5] = Enzyme kinetics of total oxidative metabolism in pooled human liver microsomes; type: in vitro ADME; conditions: both sexes, human, pooled human liver microsomes, pH 7.4; pooled HLM, Michaelis-Menten model
Description: as §1
(§4) The enzymatic reaction was stopped and the protein was precipitated by addition of an equal volume of methanol. After 30 min at −80°C, the samples were centrifuged at 30'000 x g for 15 min. The supernatant was withdrawn. Aliquots were analyzed by LSC and the supernatant was diluted with water to obtain a final solution containing less than 20% of the organic solvent. […] Samples were analyzed by HPLC combined with radiodetection.
(§5) Km and Vmax parameters were calculated by using SigmaPlot Version 8.0, Enzyme Kinetics module Version 1.1 software (SPSS Science Inc, Chicago, IL, USA). The intrinsic clearance was calculated by the equation: CLint = Vmax/Km.

human liver microsomes = test: as above; type: in vitro ADME; conditions: pooled HLM, Michaelis-Menten model
Description: as §1, §4, §5

[6] = Human ADME study: quantitative metabolite profiling in urine and feces; type: in vivo; conditions: pooled excreta n=6, from metabolite patterns (radio profiling)
Description: Average pools across the six subjects were also created by combining equal percentages (of total urine and feces excreted over the time interval) of the individual subject pools. Urine pools were analyzed directly for metabolite profiling (column recovery of a representative sample was measured), whereas feces pools were subjected to extraction. Specifically, to each aliquot of feces homogenate, two volumes of acetonitrile were added. After centrifugation, the pellet was washed further with an additional two volumes of acetonitrile. […] All washes were combined, evaporated under nitrogen, and reconstituted with a solution of 15‐mM ammonium formate (pH 3.5). This feces extract reconstitute was analyzed for metabolite profiling. Combined extraction and reconstitution (overall recovery) and column recovery were measured. […] The HPLC column used was a Phenomenex Kinetex, C18, 250 × 4.6 mm, equipped with a pre‐column of the same type (2.1 × 4.6 mm), which was placed in a column oven at 40°C. […] The HPLC gradient was as follows: initial conditions were 5% mobile phase B for 1 minute, then increased to 20% at 10 minutes post injection where it was held (isocratic) up to 20 minutes. […] The post column flow was directed to the fraction collector operated in a time‐slice mode and containing 96‐well Lumaplates (Perkin Elmer). The plates were dried at room temperature and the radioactivity was measured using a microplate scintillation counter model TopCount NXT (Perkin Elmer) instrument (up to 3 × 100‐minute counting time). […] Metabolites were identified during the same injections using data generated by the high‐resolution mass spectrometer. The molecular ions and key fragments of each drug‐related component were determined. Key fragments for each metabolite were derived from their product ion mass spectra and were used to determine the metabolite structures. Where possible, structural assignments were supported by exact mass measurement, comparison with synthetic standards and/or Hydrogen/Deuterium (H/D) exchange LC‐MS(/MS).

CN(C)C(=O)c1cc2cnc(Nc3ccc(N4CCNCC4)cn3)nc2n1C1CCCC1 [ribociclib, Ribociclib]
abdominal discomfort, share of subjects ([1]; 2 subjects of six): 33.3%
discontinuation due to an AE [1]: no subjects discontinued
serious adverse events (SAEs) [1]: No serious adverse events
severity of all AEs [1]: grade 1
subjects with an AE suspected to be related to the study drug (headache) [1]: one subject
subjects who experienced at least one adverse event (AE) ([1]; six healthy male subjects): Five
microsomal CLint [2]: 49.2 µL/min/mg
turnover by recombinant enzymes ([3]; CYP1A2, CYP3A5, FMO3, and FMO5, 0.75 and 20 µmol/L, 15 min): Low metabolic activities
turnover by recombinant enzymes ([3]; CYP1B1, CYP2A6, CYP2B6, CYP2C8, CYP2C9, CYP2C18, CYP2C19, CYP2D6, CYP2E1, CYP4A11, and CYP4F2): No metabolic activities were detected
turnover by recombinant enzymes ([3]; CYP3A4, CYP2J2, CYP1A1, FMO1, and FM03, 0.75 and 20 µmol/L, 15 min): high turnover
fm,CYP (CYP2J2; CYP2J2, share of total CYP-mediated metabolism in HLM): 0.8%
fumic (CYP2J2; CYP2J2 incubation): 0.86
apparent volume of distribution at steady state [4]: 1090 L
Km [5]: 29.1 ± 1.8 µM
Vmax, total metabolism (human liver microsomes): 766 ± 13 pmol/min/mg
Excretion (% of dose), Feces [6]: 17.3 % of dose
